Results reported in US20260240873A1, “USE OF C[…] THE TREATMENT OF TUBEROUS SCLEROSIS COMPLEX” (GW Research Limited, priority 2019, published 2026).

Assays:
TSC-associated seizures = test: Double-blind, randomized, placebo-controlled trial: TSC-associated seizure frequency; type: in vivo, human; conditions: for Mean number of TSC-associated seizures per 28 days, treatment period: 16-week treatment period, add-on to AEDs; for Mean number of TSC-associated seizures per 28 days, baseline period: 4-week baseline before treatment; for Reduction in TSC-associated seizures over the maintenance period: 12-week maintenance period, placebo 30%; for Patients who experienced a ≥50% reduction in seizures, number (%): placebo 17 (22.4%); for TSC-associated seizures, estimated ratio CBD/Placebo / TSC-associated seizures, percentage reduction CBD/Placebo: treatment period
Description: (§1) The blinded phase of the study was a randomized, double-blind, parallel-group, 16-week comparison of two doses of CBD versus placebo. Patients completed a 1-week screening period and a 4-week baseline period before they were randomized to receive 25 mg/kg/day CBD, 50 mg/kg/day CBD or equivalent volumes of placebo. Randomization was stratified by age according to the following ranges: 1-6, 7-11, 12-17 years and 18+ years.
(§2) Patients began a 4-week dose escalation period, titrating up to their assigned dose, before continuing on a stable dose of blinded investigational medicinal product (IMP) for 12 weeks.
(§3) Patients were required to perform daily interactive voice response system (IVRS) telephone calls to record seizure information. They were also required to complete a paper diary daily with information about IMP and concomitant AED administration.
The primary endpoint was the change in number of TSC-associated seizures during the treatment period (maintenance and titration) compared to baseline in patients taking CBD compared with placebo.
(§4) TSC-associated seizures included: focal motor seizures without impairment of consciousness or awareness; focal seizures with impairment of consciousness or awareness; focal seizures evolving to bilateral generalized convulsive seizures and generalized seizures (tonic-clonic, tonic, clonic or atonic) that are countable.
Secondary endpoints included the number of patients considered treatment responders which was defined as those with a >50% reduction in TSC-associated seizure frequency;
Antiepileptic efficacy measures were also determined and these included: number of patients considered treatment responders defined as those with a ≥25%, ≥50%, ≥75% or 100% reduction in TSC-associated seizure frequency; number of patients experiencing a >25% worsening, −25 to +25% no change, 25-50% improvement, 50-75% improvement or >75% improvement in TSC-associated seizure frequency; change in number of TSC-associated seizure-free days; and change in number of ‘other’ seizures (absence, myoclonic, focal sensory and infantile/epileptic spasms).

total seizures = test: Double-blind, randomized, placebo-controlled trial: total seizure count; type: in vivo, human; conditions: for Total seizure count, mean number of seizures per 28 days, treatment period: 16-week treatment period; for Total seizure count, mean number of seizures per 28 days, baseline period: baseline before treatment; for Reduction of seizures over the maintenance period (paragraph after the total seizure tables): 12-week maintenance period, placebo 30.1%
Description: as §1, §2, §3
(§5) change in Caregiver Global Impression of Change (CGIC) or Subject Global Impression of Change (SGIC) score; and change in total seizures.
as §4, with “In addition to the TSC-associated” for “TSC-associated”, “(focal” for “included: focal”, “countable) the total seizure count was recorded in the trial.” for “countable.”

[1] = Double-blind, randomized, placebo-controlled trial: Subject/Caregiver Global Impression of Change; type: in vivo, human; conditions: for Subject/caregiver global impression of change: Much improved, number (%) / Subject/caregiver global impression of change: Much worse, number (%) / Subject/caregiver global impression of change: No change, number (%) / Subject/caregiver global impression of change: Slightly improved, number (%) / Subject/caregiver global impression of change: Slightly worse, number (%) / Subject/caregiver global impression of change: Very much worse, number (%) / Subject/caregiver global impression of change: Very much improved, number (%): data from last visit
Description: as §1, §5

[2] = Double-blind, randomized, placebo-controlled trial: safety and tolerability (adverse events, ALT); type: in vivo, human; conditions: for Patients with alanine aminotransferase (ALT) elevations >3 upper level of normal (ULN): none on placebo
Description: as §1
Safety and tolerability measures that were recorded included: adverse events; clinical laboratory parameters; 12-lead electrocardiogram (ECG); physical examination parameters (including height and weight); vital signs; Columbia-Suicide Severity Rating Scale (C-SSRS; 19+ years) or C-SSRS Children's (6-18 years) score, where applicable; number of inpatient hospitalizations due to epilepsy; abuse liability and effects on menstruation cycles (in females).

seizures [3] = conditions: 200 mg/day pure CBD; four adult patients; cited from earlier work
generalized epilepsy = conditions: eight adult patients with generalized epilepsy; cited from earlier work
seizures [4] = conditions: mice; after pro-convulsant drugs or an electric current; cited from earlier work
seizures [5] = conditions: 200 mg/day pure CBD; twelve institutionalized adult patients; open label; cited from earlier work
[6] = CBD 25 mg/kg/day group (n = 75)
[7] = CBD 25 mg/kg/day, p-value 0.0009
[8] = CBD 50 mg/kg/day group (n = 73)
[9] = CBD 50 mg/kg/day, p-value 0.0018
[10] = CBD 50 mg/kg/day, treatment period, p-value 0.0018

C=C(C)[C@@H]1CCC(C)=C[C@H]1c1c(O)cc(CCCCC)cc1O [CBD, cannabidiol]
Patients with complete seizure freedom (100% reduction in TSC-associated seizure frequency) (TSC-associated seizures; CBD 25 mg/kg/day): 4 patients | TSC-associated seizures, estimated ratio Treatment period/Baseline period (TSC-associated seizures; CBD 25 mg/kg/day (n = 75)): 0.514 | TSC-associated seizures, percentage reduction Treatment period/Baseline period (TSC-associated seizures; CBD 25 mg/kg/day (n = 75)): 48.6% | Mean number of TSC-associated seizures per 28 days, treatment period (TSC-associated seizures; CBD 25 mg/kg/day (n = 75)): 26.5 per 28 days | Mean number of TSC-associated seizures per 28 days, baseline period (TSC-associated seizures; [6]): 51.6 per 28 days | Reduction in TSC-associated seizures over the maintenance period (TSC-associated seizures; CBD 25 mg/kg/day, p=0.0004): 55.8% | Patients who experienced a ≥50% reduction in seizures, number (%) (TSC-associated seizures; CBD 25 mg/kg/day, p=0.0692): 27 (36.0%) patients | TSC-associated seizures, estimated ratio CBD/Placebo (TSC-associated seizures; [7]): 0.699 | TSC-associated seizures, percentage reduction CBD/Placebo (TSC-associated seizures; [7]): 30.1% | Patients with complete seizure freedom (100% reduction in TSC-associated seizure frequency) (TSC-associated seizures; CBD 50 mg/kg/day): 2 patients | TSC-associated seizures, estimated ratio Treatment period/Baseline period (TSC-associated seizures; CBD 50 mg/kg/day (n = 73)): 0.525 | TSC-associated seizures, percentage reduction Treatment period/Baseline period (TSC-associated seizures; CBD 50 mg/kg/day (n = 73)): 47.5% | Mean number of TSC-associated seizures per 28 days, treatment period (TSC-associated seizures; CBD 50 mg/kg/day (n = 73)): 34.9 per 28 days | Mean number of TSC-associated seizures per 28 days, baseline period (TSC-associated seizures; [8]): 66.3 per 28 days | Reduction in TSC-associated seizures over the maintenance period (TSC-associated seizures; CBD 50 mg/kg/day, p=0.0005): 55.8% | Patients who experienced a ≥50% reduction in seizures, number (%) (TSC-associated seizures; CBD 50 mg/kg/day, p=0.0245): 29 (39.2%) patients | TSC-associated seizures, estimated ratio CBD/Placebo (TSC-associated seizures; [9]): 0.715 | TSC-associated seizures, percentage reduction CBD/Placebo (TSC-associated seizures; [9]): 28.5% | Number of TSC-associated seizures (conclusion) (TSC-associated seizures; both 25 and 50 mg/kg/day): significantly reduce | Total seizures, estimated ratio Treatment period/Baseline period (total seizures; CBD 25 mg/kg/day (n = 75)): 0.519 | Total seizures, percentage reduction Treatment period/Baseline period (total seizures; CBD 25 mg/kg/day (n = 75)): 48.1% | Total seizure count, mean number of seizures per 28 days, treatment period (total seizures; CBD 25 mg/kg/day (n = 75)): 28.0 per 28 days | Total seizure count, mean number of seizures per 28 days, baseline period (total seizures; [6]): 53.9 per 28 days | Reduction of seizures over the maintenance period (paragraph after the total seizure tables) (total seizures; CBD 25 mg/kg/day, p=0.0007): 55% | Total seizures, estimated ratio CBD/Placebo (total seizures; CBD 25 mg/kg/day, treatment period, p-value 0.0013): 0.709 | Total seizures, estimated ratio Treatment period/Baseline period (total seizures; CBD 50 mg/kg/day (n = 73)): 0.524 | Total seizures, percentage reduction Treatment period/Baseline period (total seizures; CBD 50 mg/kg/day (n = 73)): 47.6% | Total seizure count, mean number of seizures per 28 days, treatment period (total seizures; CBD 50 mg/kg/day (n = 73)): 39.6 per 28 days | Total seizure count, mean number of seizures per 28 days, baseline period (total seizures; [8]): 75.7 per 28 days | Reduction of seizures over the maintenance period (paragraph after the total seizure tables) (total seizures; CBD 50 mg/kg/day, p=0.0005): 55.9% | Total seizures, estimated ratio CBD/Placebo (total seizures; [10]): 0.716 | Total seizures, percentage reduction CBD/Placebo (total seizures; [10]): 28.4% | Total number of seizures (conclusion) (total seizures; both 25 and 50 mg/kg/day): significantly reduce | Subject/caregiver's global impression of change (conclusion) ([1]; 25 mg/kg/day group): significant efficacy | Subject/caregiver global impression of change: Much improved, number (%) ([1]; CBD 25 mg/kg/day): 12 (18.2%) | Subject/caregiver global impression of change: Much worse, number (%) ([1]; CBD 25 mg/kg/day): 2 (3.0%) | Subject/caregiver global impression of change: No change, number (%) ([1]; CBD 25 mg/kg/day): 14 (21.2%) | Subject/caregiver global impression of change: Slightly improved, number (%) ([1]; CBD 25 mg/kg/day): 23 (34.8%) | Subject/caregiver global impression of change: Slightly worse, number (%) ([1]; CBD 25 mg/kg/day): 4 (6.1%) | Subject/caregiver global impression of change: Very much worse, number (%) ([1]; CBD 25 mg/kg/day): 1 (1.5%) | Subject/caregiver global impression of change: Very much improved, number (%) ([1]; CBD 25 mg/kg/day, overall p-value 0.0074): 10 (15.2%) | Subject/caregiver global impression of change: Much improved, number (%) ([1]; CBD 50 mg/kg/day): 12 (18.2%) | Subject/caregiver global impression of change: Much worse, number (%) ([1]; CBD 50 mg/kg/day): 3 (4.5%) | Subject/caregiver global impression of change: No change, number (%) ([1]; CBD 50 mg/kg/day): 14 (21.2%) | Subject/caregiver global impression of change: Slightly improved, number (%) ([1]; CBD 50 mg/kg/day): 21 (31.8%) | Subject/caregiver global impression of change: Slightly worse, number (%) ([1]; CBD 50 mg/kg/day): 6 (9.1%) | Subject/caregiver global impression of change: Very much worse, number (%) ([1]; CBD 50 mg/kg/day): 1 (1.5%) | Subject/caregiver global impression of change: Very much improved, number (%) ([1]; CBD 50 mg/kg/day, overall p-value 0.0580): 9 (13.6%) | Incidence of diarrhoea, vomiting, transaminase elevations, somnolence, and rash ([2]; 50 mg/kg/day group compared to 25 mg/kg/day group): higher in the 50 mg/kg/day group | Treatment emergent adverse event, maximal severity Mild, number (%) ([2]; CBD 25 mg/kg/day (n = 75)): 37 (49.3%) | Treatment emergent adverse event, maximal severity Moderate, number (%) ([2]; CBD 25 mg/kg/day (n = 75)): 26 (34.7%) | Treatment emergent adverse event, maximal severity Severe, number (%) ([2]; CBD 25 mg/kg/day (n = 75)): 7 (9.3%) | Patients with alanine aminotransferase (ALT) elevations >3 upper level of normal (ULN) ([2]; CBD 25 mg/kg/day): 12% | Treatment emergent adverse event, maximal severity Mild, number (%) ([2]; CBD 50 mg/kg/day (n = 73)): 29 (39.7%) | Treatment emergent adverse event, maximal severity Moderate, number (%) ([2]; CBD 50 mg/kg/day (n = 73)): 35 (47.9%) | Treatment emergent adverse event, maximal severity Severe, number (%) ([2]; CBD 50 mg/kg/day (n = 73)): 9 (12.3%) | Patients with alanine aminotransferase (ALT) elevations >3 upper level of normal (ULN) ([2]; CBD 50 mg/kg/day): 25% | Rate of ALT elevations ([2]; patients on concomitant valproic acid and on the higher dose of CBD): higher rate of ALT elevations | Most common adverse reactions (≥10% and greater than placebo) ([2]; patients receiving CBD, 25 or 50 mg/kg/day): somnolence; decreased appetite; diarrhoea; vomiting; transaminase elevations; pyrexia; and infections | Seizure freedom (seizures [3]): two of the four patients became seizure free | Reduction of seizures (generalized epilepsy): marked reduction of seizures in 4 of the patients | Prevention of seizures (seizures [4]): able to prevent seizures | Control of seizures (seizures [5]): ineffective
